Structures can show the parent of a compound that is named as a salt.
What was measured:
Assay type in all cases: cell-based
[1] = tested on: Acinetobacter baumannii XNWB 0007; experiment: MIC assay of test compounds combined with ceftazidime (8 μg/mL); conditions: ceftazidime 8 μg/mL fixed
Summary of the method: (§1)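 Colonies from 20-24 h TSA plates (35±2 °C) → saline, OD600 0.1-0.15 → 300-fold dilution in 1.1×CAMHB → added to compound plus fixed antibiotic wells, growth and sterility controls included → 16-20 h at 35±2 °C → MIC by CLSI criteria.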

[2] = tested on: Klebsiella pneumoniae XNWB 0001; experiment: as above; conditions: ceftazidime 8 μg/mL fixed
Summary of the method: as §1

[3] = tested on: Klebsiella pneumoniae XNWB 0002; experiment: as above; conditions: ceftazidime 8 μg/mL fixed
Summary of the method: as §1

[4] = tested on: Klebsiella pneumoniae XNWB 0003; experiment: as above; conditions: ceftazidime 8 μg/mL fixed
Summary of the method: as §1

[5] = tested on: Klebsiella pneumoniae XNWB 0004; experiment: as above; conditions: ceftazidime 8 μg/mL fixed
Summary of the method: as §1

[6] = tested on: Klebsiella pneumoniae XNWB 0005; experiment: as above; conditions: ceftazidime 8 μg/mL fixed
Summary of the method: as §1

[7] = tested on: Klebsiella pneumoniae XNWB 0006; experiment: as above; conditions: ceftazidime 8 μg/mL fixed
Summary of the method: as §1

[8] = tested on: Pseudomonas aeruginosa XNWB 0008; experiment: as above; conditions: ceftazidime 8 μg/mL fixed
Summary of the method: as §1

[9] = tested on: Acinetobacter baumannii XNWB 0007; experiment: MIC assay of test compounds combined with imipenem (4 μg/mL); conditions: imipenem 4 μg/mL fixed
Summary of the method: as §1

[10] = tested on: Klebsiella pneumoniae XNWB 0001; experiment: as above; conditions: imipenem 4 μg/mL fixed
Summary of the method: as §1

[11] = tested on: Klebsiella pneumoniae XNWB 0002; experiment: as above; conditions: imipenem 4 μg/mL fixed
Summary of the method: as §1

[12] = tested on: Klebsiella pneumoniae XNWB 0003; experiment: as above; conditions: imipenem 4 μg/mL fixed
Summary of the method: as §1

[13] = tested on: Klebsiella pneumoniae XNWB 0004; experiment: as above; conditions: imipenem 4 μg/mL fixed
Summary of the method: as §1

[14] = tested on: Klebsiella pneumoniae XNWB 0005; experiment: as above; conditions: imipenem 4 μg/mL fixed
Summary of the method: as §1

[15] = tested on: Klebsiella pneumoniae XNWB 0006; experiment: as above; conditions: imipenem 4 μg/mL fixed
Summary of the method: as §1

[16] = tested on: Pseudomonas aeruginosa XNWB 0008; experiment: as above; conditions: imipenem 4 μg/mL fixed
Summary of the method: as §1

[17] = tested on: Enterobacter aerogenes XNWB 0011; experiment: MIC assay of test compounds combined with ampicillin (8 μg/mL); conditions: ampicillin 8 μg/mL fixed
Experimental: (§2) The bacterial strains used for the minimum inhibitory concentration (MIC) test were frozen in a −80° C. ULT freezer and thawed 2 days before use. A small amount of frozen bacterial strains were scraped using a sterile inoculating loop, streaked onto a TSA solid culture dish for inoculation, and then cultured for 20-24 h at 35±2° C. in a normal atmospheric environment.
(§3) 5-10 colonies with similar morphology were picked from the culture dish using a sterile inoculating loop and then re-streaked onto a suitable solid culture dish. Then the dish was placed into a normal incubator for culture for 20-24 h at 35±2° C.
(§4) 5-10 single bacterial colonies were picked from the solid culture dish, resuspended in 500 μL of 0.9% NaCl, and adjusted to an OD600 of 0.1-0.15 with a spectrophotometer.
(§5) The bacteria were then diluted 300-fold with 1.1×CAMHB.
(§6) Test compounds of columns A-H: having a highest final test concentration of 64 μg/mL or 32 μg/mL, 2-fold diluted.
(§7) Dilution of test compounds: All test compounds were dissolved and diluted in dimethylsulfoxide (DMSO). 170 μL of 3.2 mg/mL (50*64 μg/mL) compound was transferred to wells (A1-H1) of column 1 of a dilution master plate and then 85 μL of DMSO was transferred to wells of other columns. Each compound was diluted 2-fold in sequence (i.e., 85 μL of compound was pipetted from column 1 into column 2 and mixed uniformly, 85 μL of compound was pipetted from column 2 into column 3 and mixed uniformly, then 85 μL of compound was pipetted from column 3 into column 4 and mixed uniformly, and so on until the dilution was done in column 11).
(§8) Preparation of an additive of ampicillin: Ampicillin was dissolved in ddH2O. 30 μL of 100 μg/mL (12.5×8 μg/mL) ampicillin was transferred to columns 1-11 of an additive plate, followed by the addition of 30 μL of ddH2O to column 12.
(§9) 2 μL of each compound in the dilution master plate of the test compounds was transferred to the corresponding well of the assay plates. In the mean time, 2 μL of 100% DMSO was transferred to the compound-free wells (GC and SC wells). (1) 8 μL of imipenem in the additive plate of imipenem was transferred to the corresponding wells of the assay plates; (2) 8 μL of ceftazidime in the additive plate of ceftazidime was transferred to the corresponding wells of the assay plates; (3) 8 μL of ampicillin in the additive plate of ampicillin was transferred to the corresponding wells of the assay plates.
(§10) 90 μL of corresponding bacterial inocula were added to wells (except for SC wells) of the assay plates.
(§11) After addition, the 6 assay plates were covered by sterile covers. The mixtures in the assay plates were centrifuged by a centrifuge at 1000 rpm for 30 s, and mixed uniformly by oscillating with a microplate oscillator at 800 rpm for 1 min, and then cultured in a common incubator for 16-20 h at 35±2° C.
(§12) The minimum inhibitory concentration of each compound was recorded by reference to guidelines from the Clinical and Laboratory Standards Institute.
(§13) The minimum inhibitory concentrations of the compounds of the present invention and antibiotics (imipenem, ceftazidime, and ampicillin) against 11 strains of bacteria were tested in this study by reference to the medium microdilution method as indicated by the Clinical and Laboratory Standards Institute. The effect of the test compounds in combination with imipenem, ceftazidime, and ampicillin was also tested. Compounds were diluted two-fold in 96-well plates from the highest detection concentration of 64 μg/mL. The test compounds were tested in combination with a fixed concentration of imipenem (4 μg/mL), ceftazidime (8 μg/mL), and ampicillin (8 μg/mL). The bacterial inocula in the assay plates were resuscitated from TSA and diluted in CAMHB, while growth controls (GC wells) and sterile controls (SC wells) were set up in the assay plates. […]

[18] = tested on: Escherichia coli XNWB 0009; experiment: as above; conditions: ampicillin 8 μg/mL fixed
Experimental: as §2, §3, §4, §5, §6, §7, §8, §9, §10, §11, §12, §13

[19] = tested on: Escherichia coli XNWB 0010; experiment: as above; conditions: ampicillin 8 μg/mL fixed
Experimental: as §2, §3, §4, §5, §6, §7, §8, §9, §10, §11, §12, §13

Compound: NCCc1nnc([C@@H]2CC3(CC3)[C@@H]3CN2C(=O)N3OS(=O)(=O)O)o1 [Example 4, (1R,4S)-4-(5-(2-aminoethyl)-1,3,4-oxadiazol-2-yl)-6-oxo-5,7-diazaspiro[bicycle[3.2.1]octane-2,1′-cyclopropan]-7-yl sulfate]
- The minimum concentration of test compounds combined with ceftazidime (8 μg/mL) for bacteriostasis [1]: C (C: 16-128 μg/mL)
- The minimum concentration of test compounds combined with ceftazidime (8 μg/mL) for bacteriostasis [2]: A (A: <8 μg/mL)
- The minimum concentration of test compounds combined with ceftazidime (8 μg/mL) for bacteriostasis [3]: A (A: <8 μg/mL)
- The minimum concentration of test compounds combined with ceftazidime (8 μg/mL) for bacteriostasis [4]: A (A: <8 μg/mL)
- The minimum concentration of test compounds combined with ceftazidime (8 μg/mL) for bacteriostasis [5]: A (A: <8 μg/mL)
- The minimum concentration of test compounds combined with ceftazidime (8 μg/mL) for bacteriostasis [6]: A (A: <8 μg/mL)
- The minimum concentration of test compounds combined with ceftazidime (8 μg/mL) for bacteriostasis [7]: A (A: <8 μg/mL)
- The minimum concentration of test compounds combined with ceftazidime (8 μg/mL) for bacteriostasis [8]: C (C: 16-128 μg/mL)
- The minimum concentration of test compounds combined with imipenem (4 μg/mL) for bacteriostasis [9]: B (B: 8-16 μg/mL)
- The minimum concentration of test compounds combined with imipenem (4 μg/mL) for bacteriostasis [10]: A (A: <8 μg/mL)
- The minimum concentration of test compounds combined with imipenem (4 μg/mL) for bacteriostasis [11]: A (A: <8 μg/mL)
- The minimum concentration of test compounds combined with imipenem (4 μg/mL) for bacteriostasis [12]: A (A: <8 μg/mL)
- The minimum concentration of test compounds combined with imipenem (4 μg/mL) for bacteriostasis [13]: A (A: <8 μg/mL)
- The minimum concentration of test compounds combined with imipenem (4 μg/mL) for bacteriostasis [14]: A (A: <8 μg/mL)
- The minimum concentration of test compounds combined with imipenem (4 μg/mL) for bacteriostasis [15]: A (A: <8 μg/mL)
- The minimum concentration of test compounds combined with imipenem (4 μg/mL) for bacteriostasis [16]: A (A: <8 μg/mL)
- The minimum concentration of test compounds combined with ampicillin (8 μg/mL) for bacteriostasis [17]: B (B: 8-16 μg/mL)
- The minimum concentration of test compounds combined with ampicillin (8 μg/mL) for bacteriostasis [18]: A (A: <8 μg/mL)
- The minimum concentration of test compounds combined with ampicillin (8 μg/mL) for bacteriostasis [19]: A (A: <8 μg/mL)

Compound: O=C1N2C[C@H](N1OS(=O)(=O)O)C1(CC1)C[C@H]2c1cc(C2CCNC2)on1 (stereo partly drawn) [Example 45, (1R,4S)-6-oxo-4-(5-(pyrrolidin-3-yl)isoxazol-3-yl)-5,7-diazaspiro[bicyclo[3.2.1]octane-2,1′-cyclopropan]-7-yl sulfate]
- The minimum concentration of test compounds combined with ceftazidime (8 μg/mL) for bacteriostasis [1]: C (C: 16-128 μg/mL)
- The minimum concentration of test compounds combined with ceftazidime (8 μg/mL) for bacteriostasis [2]: A (A: <8 μg/mL)
- The minimum concentration of test compounds combined with ceftazidime (8 μg/mL) for bacteriostasis [3]: A (A: <8 μg/mL)
- The minimum concentration of test compounds combined with ceftazidime (8 μg/mL) for bacteriostasis [4]: A (A: <8 μg/mL)
- The minimum concentration of test compounds combined with ceftazidime (8 μg/mL) for bacteriostasis [5]: B (B: 8-16 μg/mL)
- The minimum concentration of test compounds combined with ceftazidime (8 μg/mL) for bacteriostasis [6]: A (A: <8 μg/mL)
- The minimum concentration of test compounds combined with ceftazidime (8 μg/mL) for bacteriostasis [7]: A (A: <8 μg/mL)
- The minimum concentration of test compounds combined with ceftazidime (8 μg/mL) for bacteriostasis [8]: B (B: 8-16 μg/mL)
- The minimum concentration of test compounds combined with imipenem (4 μg/mL) for bacteriostasis [9]: C (C: 16-128 μg/mL)
- The minimum concentration of test compounds combined with imipenem (4 μg/mL) for bacteriostasis [10]: A (A: <8 μg/mL)
- The minimum concentration of test compounds combined with imipenem (4 μg/mL) for bacteriostasis [11]: A (A: <8 μg/mL)
- The minimum concentration of test compounds combined with imipenem (4 μg/mL) for bacteriostasis [12]: A (A: <8 μg/mL)
- The minimum concentration of test compounds combined with imipenem (4 μg/mL) for bacteriostasis [13]: A (A: <8 μg/mL)
- The minimum concentration of test compounds combined with imipenem (4 μg/mL) for bacteriostasis [14]: A (A: <8 μg/mL)
- The minimum concentration of test compounds combined with imipenem (4 μg/mL) for bacteriostasis [15]: A (A: <8 μg/mL)
- The minimum concentration of test compounds combined with imipenem (4 μg/mL) for bacteriostasis [16]: A (A: <8 μg/mL)
- The minimum concentration of test compounds combined with ampicillin (8 μg/mL) for bacteriostasis [17]: A (A: <8 μg/mL)
- The minimum concentration of test compounds combined with ampicillin (8 μg/mL) for bacteriostasis [18]: A (A: <8 μg/mL)
- The minimum concentration of test compounds combined with ampicillin (8 μg/mL) for bacteriostasis [19]: A (A: <8 μg/mL)

Compound: O=C1N2C[C@H](N1OS(=O)(=O)O)C1(CC1)C[C@H]2c1nnc(CNC2CNC2)o1 [Example 14, (1R,4S)-4-(5-((azetidin-3-ylamino)methyl)-1,3,4-oxadiazol-2-yl)-6-oxo-5,7-diazaspiro [bicyclo[3.2.1]octane-2,1′-cyclopropan]-7-yl sulfate]
- The minimum concentration of test compounds combined with ceftazidime (8 μg/mL) for bacteriostasis [1]: C (C: 16-128 μg/mL)
- The minimum concentration of test compounds combined with ceftazidime (8 μg/mL) for bacteriostasis [2]: A (A: <8 μg/mL)
- The minimum concentration of test compounds combined with ceftazidime (8 μg/mL) for bacteriostasis [3]: A (A: <8 μg/mL)
- The minimum concentration of test compounds combined with ceftazidime (8 μg/mL) for bacteriostasis [4]: B (B: 8-16 μg/mL)
- The minimum concentration of test compounds combined with ceftazidime (8 μg/mL) for bacteriostasis [5]: B (B: 8-16 μg/mL)
- The minimum concentration of test compounds combined with ceftazidime (8 μg/mL) for bacteriostasis [6]: B (B: 8-16 μg/mL)
- The minimum concentration of test compounds combined with ceftazidime (8 μg/mL) for bacteriostasis [7]: A (A: <8 μg/mL)
- The minimum concentration of test compounds combined with ceftazidime (8 μg/mL) for bacteriostasis [8]: C (C: 16-128 μg/mL)
- The minimum concentration of test compounds combined with imipenem (4 μg/mL) for bacteriostasis [9]: C (C: 16-128 μg/mL)
- The minimum concentration of test compounds combined with imipenem (4 μg/mL) for bacteriostasis [10]: A (A: <8 μg/mL)
- The minimum concentration of test compounds combined with imipenem (4 μg/mL) for bacteriostasis [11]: A (A: <8 μg/mL)
- The minimum concentration of test compounds combined with imipenem (4 μg/mL) for bacteriostasis [12]: A (A: <8 μg/mL)
- The minimum concentration of test compounds combined with imipenem (4 μg/mL) for bacteriostasis [13]: A (A: <8 μg/mL)
- The minimum concentration of test compounds combined with imipenem (4 μg/mL) for bacteriostasis [14]: A (A: <8 μg/mL)
- The minimum concentration of test compounds combined with imipenem (4 μg/mL) for bacteriostasis [15]: A (A: <8 μg/mL)
- The minimum concentration of test compounds combined with imipenem (4 μg/mL) for bacteriostasis [16]: B (B: 8-16 μg/mL)
- The minimum concentration of test compounds combined with ampicillin (8 μg/mL) for bacteriostasis [17]: B (B: 8-16 μg/mL)
- The minimum concentration of test compounds combined with ampicillin (8 μg/mL) for bacteriostasis [18]: A (A: <8 μg/mL)
- The minimum concentration of test compounds combined with ampicillin (8 μg/mL) for bacteriostasis [19]: 4 µg/mL

— patent US11078202B2, “β-lactamase inhibitor and use thereof” (priority 2018, dated 2021)
